{"source": "patent US10428134B2", "about": "“Immunoglobulins and uses thereof” (JANSSEN PHARMACEUTICA NV, priority 2016, dated 2019)", "key": {"[1]": {"molecular_target": "T1, CALCR (Homo sapiens, UniProt P30988)", "T1 construct": "host or cells: cells expressing CALCR (unnamed vendor)", "T1 sequence (P30988 25-474)": "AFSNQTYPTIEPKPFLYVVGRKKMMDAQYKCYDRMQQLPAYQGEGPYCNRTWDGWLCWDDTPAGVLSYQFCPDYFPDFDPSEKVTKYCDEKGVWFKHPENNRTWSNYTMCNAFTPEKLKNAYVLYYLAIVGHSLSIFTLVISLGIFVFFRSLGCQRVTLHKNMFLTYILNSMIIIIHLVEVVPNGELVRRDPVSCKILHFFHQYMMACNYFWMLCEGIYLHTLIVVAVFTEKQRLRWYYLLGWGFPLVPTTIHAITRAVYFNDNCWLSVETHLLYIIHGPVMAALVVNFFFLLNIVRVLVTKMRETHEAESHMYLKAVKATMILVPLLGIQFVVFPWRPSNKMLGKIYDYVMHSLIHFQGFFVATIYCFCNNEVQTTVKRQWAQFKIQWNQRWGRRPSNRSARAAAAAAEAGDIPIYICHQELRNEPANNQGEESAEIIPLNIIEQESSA", "test": "class B GPCR panel cAMP assay, CALCR", "format": "cell-based", "method": "(§1) The assays were performed according to the vendor's standard operating procedures with a positive control included for each receptor tested."}, "[2]": {"molecular_target": "T2, PTHR1 (Homo sapiens, UniProt Q03431)", "T2 construct": "host or cells: cells expressing PTHR1 (unnamed vendor)", "T2 sequence (Q03431 27-593)": "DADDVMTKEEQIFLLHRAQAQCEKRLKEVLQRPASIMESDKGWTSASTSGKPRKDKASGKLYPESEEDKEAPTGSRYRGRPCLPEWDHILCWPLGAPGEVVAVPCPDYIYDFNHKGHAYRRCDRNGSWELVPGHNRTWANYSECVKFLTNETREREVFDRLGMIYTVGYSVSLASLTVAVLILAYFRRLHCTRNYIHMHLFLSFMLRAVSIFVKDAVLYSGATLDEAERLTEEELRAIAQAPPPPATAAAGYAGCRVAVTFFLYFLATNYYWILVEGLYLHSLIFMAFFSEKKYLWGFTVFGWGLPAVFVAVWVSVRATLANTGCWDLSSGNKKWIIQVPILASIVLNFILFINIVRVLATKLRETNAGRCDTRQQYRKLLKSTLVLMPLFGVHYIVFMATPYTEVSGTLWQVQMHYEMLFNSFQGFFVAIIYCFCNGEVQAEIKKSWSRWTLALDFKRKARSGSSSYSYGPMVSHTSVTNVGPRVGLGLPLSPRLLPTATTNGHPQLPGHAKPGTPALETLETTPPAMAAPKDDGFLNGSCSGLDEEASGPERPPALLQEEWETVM", "test": "class B GPCR panel cAMP assay, PTHR1", "format": "cell-based", "conditions": "read-out: Max response", "method": "as §1"}}, "data": [{"smiles": "CC(C)C[C@H](NC(=O)[C@H](CCCCN)NC(=O)CNC(=O)[C@H](CC(C)C)NC(=O)[C@@H](NC(=O)[C@@H]1CSSC[C@H](N)C(=O)N[C@@H](CO)C(=O)N[C@@H](CC(N)=O)C(=O)N[C@@H](CC(C)C)C(=O)N[C@@H](CO)C(=O)N[C@@H]([C@@H](C)O)C(=O)N1)C(C)C)C(=O)N[C@@H](CO)C(=O)N[C@@H](CCC(N)=O)C(=O)N[C@@H](CCC(=O)O)C(=O)N[C@@H](CC(C)C)C(=O)N[C@@H](Cc1c[nH]cn1)C(=O)N[C@@H](CCCCN)C(=O)N[C@@H](CC(C)C)C(=O)N[C@@H](CCC(N)=O)C(=O)N[C@H](C(=O)N[C@@H](Cc1ccc(O)cc1)C(=O)N1CCC[C@H]1C(=O)N[C@@H](CCCNC(=N)N)C(=O)N[C@H](C(=O)N[C@@H](CC(N)=O)C(=O)N[C@H](C(=O)NCC(=O)N[C@@H](CO)C(=O)NCC(=O)N[C@H](C(=O)N1CCC[C@H]1C(N)=O)[C@@H](C)O)[C@@H](C)O)[C@@H](C)O)[C@@H](C)O", "note": "[Calcitonin]", "values": [{"measurement": "Curve Bottom", "setting": "[1]; CALCR cAMP assay", "value": "−6.2187"}, {"measurement": "Curve Top", "setting": "[1]; CALCR cAMP assay", "value": 105}, {"measurement": "Hill", "setting": "[1]; CALCR cAMP assay", "value": 1.5254}, {"measurement": "Emax", "setting": "[1]; read-out: Max response", "value": 101, "unit": "%"}]}, {"smiles": "CC[C@H](C)[C@H](NC(=O)[C@H](CCC(=O)O)NC(=O)[C@H](CO)NC(=O)[C@@H](NC(=O)[C@@H](N)CO)C(C)C)C(=O)N[C@@H](CCC(N)=O)C(=O)N[C@@H](CC(C)C)C(=O)N[C@@H](CCSC)C(=O)N[C@@H](Cc1cnc[nH]1)C(=O)N[C@@H](CC(N)=O)C(=O)N[C@@H](CC(C)C)C(=O)NCC(=O)N[C@@H](CCCCN)C(=O)N[C@@H](Cc1cnc[nH]1)C(=O)N[C@@H](CC(C)C)C(=O)N[C@@H](CC(N)=O)C(=O)N[C@@H](CO)C(=O)N[C@@H](CCSC)C(=O)N[C@@H](CCC(=O)O)C(=O)N[C@@H](CCCNC(=N)N)C(=O)N[C@H](C(=O)N[C@@H](CCC(=O)O)C(=O)N[C@@H](Cc1c[nH]c2ccccc12)C(=O)N[C@@H](CC(C)C)C(=O)N[C@@H](CCCNC(=N)N)C(=O)N[C@@H](CCCCN)C(=O)N[C@@H](CCCCN)C(=O)N[C@@H](CC(C)C)C(=O)N[C@@H](CCC(N)=O)C(=O)N[C@@H](CC(=O)O)C(=O)N[C@H](C(=O)N[C@@H](Cc1cnc[nH]1)C(=O)N[C@@H](CC(N)=O)C(=O)N[C@@H](Cc1ccccc1)C(=O)O)C(C)C)C(C)C", "note": "[PTH(1-34)]", "values": [{"measurement": "Emax", "setting": "[2]", "value": 93.6, "unit": "%"}]}]}
